Data on 5 molecules can be found in paper PMC9078821, “The synthesis of axially disubstituted silicon phthalocyanines, their quaternized derivatives and first inhibitory effect on human cytosolic carbonic anhydrase isozymes hCA I and II” (RSC Advances, 2018).

The structures appear in SMILES notation.

Assay [1] concerns the target T1, hCA I (Homo sapiens, UniProt P00915).
T1 construct: from tissue; host or cells: human erythrocytes (fresh human blood)
The assay can be described thus: Esterase activity assay with 4-nitrophenylacetate as substrate, hCA I. In kind it is biochemical. As to conditions: for IC50: 4-nitrophenylacetate substrate, pH 7.4, 25 °C, enzyme purified from human erythrocytes, errors 2–5%, three assays; for hCA I inhibition, result in words: ranking within the series. On the procedure: (§1) Erythrocytes were purified from fresh human blood obtained from the Blood Centre of the Research Hospital at Atatürk University. The blood samples were centrifuged at 1500 rpm for 15 min and the plasma and buffy coat were removed. The red cells were isolated and washed twice with 0.9% NaCl, and hemolyzed with 1.5 volumes of ice-cold water. The ghost and intact cells were removed by centrifugation at 20 000 rpm for 30 min at 4 °C. The pH of the hemolysate was adjusted to 8.7 with solid Tris.[27] […] The affinity gel was washed with 25 mM Tris–HCl/22 mM Na2SO4 (pH 8.7). The human carbonic anhydrase (hCA I and hCA II) isozymes were eluted with 1 M NaCl/25 mM Na2HPO4 (pH 6.3) and 0.1 M CH3COONa/0.5 M NaClO4 (pH 5.6), respectively. All procedures were performed at 4 °C.[27]
(§2) Carbonic anhydrase activity was assayed by following the change in absorbance at 348 nm of 4-nitrophenylacetate (NPA) to 4-nitrophenylate ion over a period of 3 min at 25 °C using a spectrophotometer (Shimadzu UV-1800) according to the method described by Verpoorte et al.[28] The enzymatic reaction, in a total volume of 3.0 mL, contained 1.4 mL 0.05 M Tris–SO4 buffer (pH 7.4), 1 mL 3 mM 4-nitrophenylacetate, 0.5 mL H2O and 0.1 mL enzyme solution. A reference measurement was obtained by preparing the same cuvette without enzyme solution. The inhibitory effects of compounds were examined. All compounds were tested in triplicate at each concentration used. Different inhibitor concentrations were used. Control cuvette activity in the absence of inhibitor was taken as 100%. For each inhibitor an activity (%)–[inhibitor] graphs were drawn.[29]

The target of assay [2] is T2, hCA II (Homo sapiens, UniProt P00918).
T2 construct: from tissue; host or cells: human erythrocytes (fresh human blood)
The assay can be described thus: Esterase activity assay with 4-nitrophenylacetate as substrate, hCA II. It is filed as biochemical. As to conditions: 4-nitrophenylacetate substrate, pH 7.4, 25 °C, enzyme purified from human erythrocytes, errors 2–5%, three assays. The method, then: as §1, §2

T1 sequence (P00915 whole entry): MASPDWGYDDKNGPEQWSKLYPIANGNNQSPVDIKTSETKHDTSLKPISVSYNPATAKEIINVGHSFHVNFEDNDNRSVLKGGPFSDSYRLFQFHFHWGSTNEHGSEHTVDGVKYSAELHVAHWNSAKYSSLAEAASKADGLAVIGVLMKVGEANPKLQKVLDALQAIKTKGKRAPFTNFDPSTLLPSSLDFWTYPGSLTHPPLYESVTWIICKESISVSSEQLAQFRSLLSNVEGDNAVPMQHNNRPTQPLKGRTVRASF

On to `C[N+]1(CCOc2cc(CO[Si]3(OCc4cc(OCC[N+]5(C)CCOCC5)cc(OCC[N+]5(C)CCOCC5)c4)n4c5c6ccccc6c4N=C4N=C(N=c6c7ccccc7c(n63)=NC3=NC(=N5)c5ccccc53)c3ccccc34)cc(OCC[N+]3(C)CCOCC3)c2)CCOCC1` [ZM-1-SiQ], for which the IC50 is 0.071 µM in assay [1] and 0.0544 µM in assay [2].
Turning to `c1ccc2c(c1)C1=NC2=Nc2c3ccccc3c3n2[Si](OCc2cc(OCCN4CCOCC4)cc(OCCN4CCOCC4)c2)(OCc2cc(OCCN4CCOCC4)cc(OCCN4CCOCC4)c2)n2c(c4ccccc4c2=NC2=NC(=N3)c3ccccc32)=N1` [ZM-1-Si], the IC50 turned out to be 0.165 µM in assay [1] and 0.121 µM in assay [2]. The “hCA I inhibition, result in words” value in assay [1] is reported as “moderately inhibited”.
`CC[N+](C)(CC)c1cccc(OCCOCCO[Si]2(OCCOCCOc3cccc([N+](C)(CC)CC)c3)n3c4c5ccccc5c3N=C3N=C(N=c5c6ccccc6c(n52)=NC2=NC(=N4)c4ccccc42)c2ccccc23)c1` [ZM-5-SiQ]: the IC50 amounted to 0.0243 µM in assay [1] and 0.0363 µM in assay [2].
As for `CCN(CC)c1cccc(OCCOCCO[Si]2(OCCOCCOc3cccc(N(CC)CC)c3)n3c4c5ccccc5c3N=C3N=C(N=c5c6ccccc6c(n52)=NC2=NC(=N4)c4ccccc42)c2ccccc23)c1` [ZM-5-Si], the IC50 in assay [1] was determined as 0.084 µM; in assay [2], 0.0762 µM.
Take `CN(C)c1ccc(/C=C/C(=O)c2ccc(O[Si]3(Oc4ccc(C(=O)/C=C/c5ccc(N(C)C)cc5)cc4)n4c5c6ccccc6c4N=C4N=C(N=c6c7ccccc7c(n63)=NC3=NC(=N5)c5ccccc53)c3ccccc34)cc2)cc1` [ZT-Si, Bis[(2E)-3-[4-(dimethylamino)phenyl]-1-(4-phenoxy)prop-2-en-1-one]phthalocyaninato silicon(IV)]: the IC50 in assay [1] is 0.0178 µM; in assay [2], 0.0172 µM. The “hCA I inhibition, result in words” value in assay [1] is listed as “among the best inhibitors”.
